# Measured values reported in publication PMC7696940, “Effects of Rationally Designed Physico-Chemical Variants of the Peptide PuroA on Biocidal Activity towards Bacterial and Mammalian Cells” (International Journal of Molecular Sciences, 2020).
# Several values for one entry are separate records, joined by “and”; a condition that tells them apart may be missing. Equal values may be shown once. Where no end group is shown, it is not given here.
# Experiments:
# [1] = tested on: MRSA M173525; test: Inhibition of initial cell attachment (CV and MTT assays); type: cell-based, methicillin-resistant Staphylococcus aureus; settings: polystyrene, 24 h, 37 °C, triplicate
# Method: The effects of PuroA and other selected peptides (based on their antibacterial activity) on both the initial cell attachment and 6 h preformed biofilms of MRSA on polystyrene were tested as described by Jadhav et al., at their respective 0.5 × MIC, 1 × MIC, and 2 × MIC concentrations. All tests were conducted in triplicate. For testing the inhibition of initial cell attachment, 100 μL of peptide solutions were added to the microtitre plates, then mixed with 100 μL of M173525 cell suspension (1 × 10^6 CFU/mL, cultured in tryptic soy broth medium (TSB; Oxoid) containing 1% glucose), or 100 μL of sterile MilliQ water as negative control. The plates were incubated at 37 °C for 24 h to allow cell attachment. The biofilm formation was then assessed using CV and MTT assays. […] Peptide solutions (100 μL) were then added, the plates incubated at 37 °C for 1 h and the biofilms assessed.
# The assay works as an indicator of attached living and non-living biomass. Indirect assessment of cell attachment of MRSA was estimated using the modified CV assay as per Jadhav et al.. After incubations of the plates (for 24 h or 1 h, as above), the culture medium from each well was removed gently and any non-adherent bacteria removed by washing the plates five times with sterile distilled water (dH2O). The plates were air-dried, then oven-dried at 60 °C for 1 h. The biofilm cells in the wells were stained with 100 μL of 1% CV and incubated for 15 min at room temperature. Excess stain was removed by washing the plates three times with sterile dH2O. Ethanol (95%, 125 µL) was transferred to each well to de-stain the cells. The de-staining solution from each well was then transferred to a new plate and its absorbance measured at 595 nm. The percentage inhibition of biomass formation concentration was calculated as: ((OD595 nm control well without peptide − OD5 95 well with peptide)/OD595 nm control well without peptide) × 100. All tests were conducted in triplicate.
# A modified methylthiazotetrazolium (MTT) (3-[4,5-dimethyl thiazol-2-yl]-2, 5-diphenyltetrazolium bromide) reduction assay was used, wherein the blue product (MTT salt reduced to formazan by dehydrogenases) is taken as a respiratory indicator of live cells. Briefly, MTT (Sigma-Aldrich, Gillingham, UK) was dissolved in PBS to 5 mg/mL. After incubations of plates (for 24 h or 1 h, as above), the culture medium was gently removed and the plates air-dried. PBS (100 μL) and MTT (5 µL, 5 mg/mL) were added to each well and the plates incubated for 3 h at 37 °C. The insoluble purple product was dissolved in 100 µL of dimethyl sulphoxide (DMSO, Sigma-Aldrich, Gillingham, UK) and the absorbance measured at 570 nm. The % inhibition of metabolic activity was calculated as: ((OD570 nm control well without peptide − OD570 nm well with peptide)/OD570 nm control well without peptide) × 100. All tests were conducted in triplicate.
# [2] = tested on: E. coli and S. aureus; test: Salt tolerance (MICs under 0-150 mM NaCl, summary); type: cell-based, Escherichia coli; Staphylococcus aureus; set-up: key: Up to 50 mM: no effects on antibacterial activity up to 50 mM NaCl but increase in the MICs for E. coli and S. aureus at 100 mM NaCl; Intolerant: not resistant to salt effects even at 50 mM NaCl; Up to 150 mM: no effects on antibacterial activity up to 150 mM NaCl; settings: MICs for E. coli and S. aureus in MHB with 0, 50, 100 or 150 mM NaCl
# Method: The activity of peptides was determined against the Gram-positive Staphylococcus aureus (ATCC 25923), and the Gram-negative Escherichia coli (ATCC 25922) and Pseudomonas aeruginosa (ATCC 9027) bacteria. Selected peptides were also tested against two clinical isolates of methicillin-resistant Staphylococcus aureus (MRSA), M173525 and M180920, kindly provided by Dr P. B. Ward (Microbiology Department, Austin and Repatriation Medical Centre, Heidelberg West, Victoria, Australia). The Minimum inhibitory concentration (MIC) of peptides was determined by the microtitre broth dilution method, as described in Phillips et al.. Briefly, bacteria were grown in Mueller-Hinton Broth (MHB) at 37 °C overnight with shaking (200 rpm). The cultures were adjusted to 0.5 McFarland turbidity standard (approximately 1 × 10^8 colony forming units (CFU)/mL), then diluted 1:100 in MHB (1 × 10^6 CFU/mL). A total of 75 μL of these suspensions were mixed with 25 μL of peptide solutions (final concentrations 250 to 0.5 μg/mL) and the microtitre plates incubated overnight at 37 °C. Positive growth controls (inoculum and MHB, with no peptide) and sterility controls (0.01% glacial acetic) were also included. Post-incubations, the absorbance of cultures at 595 nm was measured using a microplate reader (POLARstar Omega, Germany). […] To evaluate salt sensitivity of peptides up to physiological levels (150 mM NaCl), overnight cultures of S. aureus and E. coli adjusted to 0.5 McFarland turbidity standard were diluted 1:100 in MHB containing 0, 50, 100 or 150 mM NaCl, and the MICs of peptides determined as above. All tests were conducted in triplicate. The results are shown as the mode of values obtained.
# [3] = tested on: pBlueScript SK+ plasmid DNA; test: In vitro DNA-binding assay (gel retardation); settings: 100 ng pBlueScript SK+, peptide 8-500 µg/mL, 1 h room temperature, 1% agarose
# Method: The ability of peptides to bind to purified DNA (indicative of in vivo DNA binding potential) was tested by the modified gel retardation assay developed by Alfred et al.. The DNA of pBlueScript SK+ (100 ng) was incubated with peptides (to final concentrations of 8, 16, 32, 64, 125, 250 or 500 µg/mL) in 15 µL volumes made with sterile MilliQ water, the held at room temperature for 1h. Loading dye was added to each sample and the samples electrophoresed on 1% agarose gels. The gels were then immersed in ethidium bromide ([…]) then visualized and imaged
Compound,"Percentage of Inhibition of Initial MRSA Cells Attachment, CV ([1]; 0.5 × MIC) [%]","Percentage of Inhibition of Initial MRSA Cells Attachment, MTT ([1]; 0.5 × MIC) [%]","Percentage of Inhibition of Initial MRSA Cells Attachment, CV ([1]; 1 × MIC) [%]","Percentage of Inhibition of Initial MRSA Cells Attachment, MTT ([1]; 1 × MIC) [%]","Percentage of Inhibition of Initial MRSA Cells Attachment, CV ([1]; 2 × MIC) [%]","Percentage of Inhibition of Initial MRSA Cells Attachment, MTT ([1]; 2 × MIC)",Salt Tolerance [2],Binding to DNA in vitro (concentration inhibiting plasmid migration) [3] [µg/mL]
CC(C)[C@H](NC(=O)[C@@H]1CCCN1C(=O)[C@@H](N)Cc1ccccc1)C(=O)N[C@H](C(=O)N[C@@H](Cc1c[nH]c2ccccc12)C(=O)N[C@@H](CCCNC(=N)N)C(=O)N[C@@H](Cc1c[nH]c2ccccc12)C(=O)N[C@@H](Cc1c[nH]c2ccccc12)C(=O)N[C@@H](CCCCN)C(=O)N[C@@H](Cc1c[nH]c2ccccc12)C(=O)N[C@@H](Cc1c[nH]c2ccccc12)C(=O)N[C@@H](CCCCN)C(=O)NCC(N)=O)[C@@H](C)O [PuroA],70 ± 5.6,92 ± 1.5,75 ± 4.0,95 ± 1.1,79 ± 4.5,95% and 95 ± 0.5%,,
RKRWWRWWKWWKR-NH2 [Peptide P1],72 ± 3.1,92 ± 3.0,75 ± 1.9,95 ± 2.3,78 ± 6.1,95 ± 2.5%,Up to 150 mM,
WRWWKWW-NH2 [Peptide W7],69 ± 3.6,90 ± 2.9,75 ± 5.0,95 ± 4.0,76 ± 4.8,96 ± 1.5%,Up to 150 mM,≥ 16
WWRWWKWW-NH2 [WW],71.5 ± 3.5,90 ± 2.0,73 ± 6.2,95 ± 3.1,79 ± 7.5,96 ± 0.5%,,
